Test results from patent publication US20150126553A1, “BICYCLIC HETEROCYCLES CAPABLE OF MODULATING T-CELL RESPONSES, AND METHODS OF USING SAME” (Nogra Pharma Limited, priority 2012, published 2015).

Experiments:
scaffolding protein LAT = test: Western blot of T cell receptor related signaling, phospho-LAT; type: cell-based, human; conditions: pretreated 10 minutes, stimulated 10 minutes with PHA; FIG. 2A
Procedure: (§1) Lymphocytes were seeded in a 6 well plate (1.0·10^7/well), pretreated for 10 minutes with S3.1, S3.4 or dexamethasone and stimulated for 10 minutes with PHA. The experiment was stopped by adding a large volume of ice cold PBS to the cells. The suspension was transferred to a tube, briefly spinned down in a centrifuge and the supernatant removed. The pellet was lysed by adding cold lysisbuffer (0.1% NP40, 50 mM TrisHCl, 1 mM EDTA, 1 mM EGTA, 150 mM NaCl, 200 μM Na3VO4, 10 mM NaF and protease inhibitors) and incubating 20 minutes on ice.
(§2) To investigate the cell signaling events that are affected by treatment with S3.1 and S3.4, lysates were supplemented with sample buffer (188 mM Tris-Cl (pH 6.8), 3% SDS, 30% glycerol, 0.01% bromophenol blue, 15% β-mercaptoethanol), heated to 95° C. for 5 minutes, cooled on ice and sonicated. Samples were then run on 10% SDS-PAGE gel, blotted to PVDF membrane and incubated with antibodies for phospho-Zap70 (Cell Signaling Technology (Beverly, Mass.)) and phospho-LAT (Cell Signaling Technology (Beverly, Mass.)). To show equal loading of the samples the blot was incubated with an antibody directed against beta-actin (Santa Cruz Biotechnology (Heidelberg, Germany)).

kinase Zap70 = test: Western blot of T cell receptor related signaling, phospho-Zap70; type: cell-based, human; conditions: pretreated 10 minutes, stimulated 10 minutes with PHA; FIG. 2A
Procedure: as §1, §2

[1] = tested on: Human peripheral blood lymphocytes (PBLs); test: Inhibition of T lymphocyte proliferation (PHA stimulation, tritiated thymidine); type: cell-based; conditions: PHA stimulated lymphocytes
Procedure: Human peripheral blood lymphocytes (PBLs) were isolated from whole blood of healthy volunteers by Ficoll-Isopaque density gradient centrifugation. After washing, monocytes were separated from lymphocytes by percoll density gradient centrifugation. The lymphocytes were cultured in IMDM (Gibco, Verviers, Belgium) supplemented with 10% heat inactivated fetal calf serum.
Cells were seeded in 96 well plates and stimulated with PHA (10 μg/ml) and corresponding concentration of pharmaceuticals. After 24 hours tritiated thymidine was added to each well and left overnight. Next morning proliferation was measured by microbeta counter. Graphs were plotted with the untreated condition set to a hundred percent.

How did the “LAT phosphorylation level compared to a stimulated untreated control” value (scaffolding protein LAT) turn out when `c1ccc(CN2CCCC(c3ccnc(SCCN4CCCC4)n3)C2)cc1` (stereo not drawn) [Compound S3.4] was run?
The value was “lower phosphorylation levels”.

What about the “Zap70 phosphorylation level compared to a stimulated untreated control” value (kinase Zap70) of the same compound?
Its value is “lower phosphorylation levels”.

And the “effect on T lymphocyte proliferation” value [1]?
The value was “antiproliferative effect”.
